Consider 18 compounds from US20240132431A1, “METHOD FOR ALKYLATING ACIDIC FUNCTIONAL GROUP” (Chugai Seiyaku Kabushiki Kaisha, priority 2021, published 2024).

The assay has as its target T1, Bcl-2 protein (Recombinant Human Bcl-2 Protein) (Homo sapiens, UniProt P10415).
T1 construct: purchased Novus NBP2-34889
The experiment in a line: Binding evaluation of mixture library compounds to Bcl-2 using AS-MS (affinity selection mass spectrometry). Particulars: for ASMS ratio (%) n = 2: replicate n = 2; for ASMS ratio (%) n = 2 / ASMS ratio (%) n = 1: ASMS Ratio(%)=(A−C)/B×100; for ASMS ratio (%) n = 1: replicate n = 1. In a few lines: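 Affinity selection MS: Bcl-2 20 μM + 1200-cpd mixture, […]/cpd, Tris pH 7.4 buffer w/ Tween-20, DTT; 1 h 23° C dark; P-2 spin SEC; MeCN/MeOH extraction; RP LC/MS. ASMS Ratio(%) = (A−C)/B×100.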

The mark [1] stands for this setting: AS-MS on the mixture of 1200 library compounds.
[2] abbreviates: AS-MS, mixture of 1200 compounds, Bcl-2.

T1 sequence (P10415 whole entry): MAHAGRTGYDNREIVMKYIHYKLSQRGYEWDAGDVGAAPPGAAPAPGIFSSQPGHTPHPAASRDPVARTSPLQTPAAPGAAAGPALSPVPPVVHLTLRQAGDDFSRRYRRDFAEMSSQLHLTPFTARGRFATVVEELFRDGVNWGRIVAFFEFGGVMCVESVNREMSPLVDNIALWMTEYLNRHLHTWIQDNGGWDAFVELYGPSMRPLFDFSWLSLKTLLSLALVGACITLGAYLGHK

With `CCOc1cccc(-c2cnn(-c3cc(C(=O)N4CCN(c5ccc(C(=O)NS(=O)(=O)C(C)(C)C)nn5)CC4)cc(C(F)(F)F)c3)c2)c1` [B2L021-01, N-tert-Butylsulfonyl-6-[4-[3-[4-(3-ethoxyphenyl)pyrazol-1-yl]-5-(trifluoromethyl)benzoyl]piperazin-1-yl]pyridazine-3-carboxamide], the “ASMS ratio (%)” value is, setting by setting: (n = 1) 0.0%; (n = 2) −14.9%.

As to `CCOc1cccc(C#Cc2ccccc2C(=O)N2CCN(c3ccc(C(=O)NS(=O)(=O)CC45CC6CC(CC(C6)C4)C5)nn3)CC2)c1` [B2A007-01, N-(1-Adamantylmethylsulfonyl)-6-[4-[2-[2-(3-ethoxyphenyl)ethynyl]benzoyl]piperazin-1-yl]pyridazine-3-carboxamide], for the setting “AS-MS, mixture library, Bcl-2”, the “ASMS ratio (%) n = 2” value came out at 0.0%.

`CCOc1cncc(-c2ccc(C(=O)N3CCN(c4ccc(C(=O)NS(=O)(=O)CC56CC7CC(CC(C7)C5)C6)cc4)CC3)cc2C)c1` [B2A026-01, N-(1-Adamantylmethylsulfonyl)-4-[4-[4-(5-ethoxypyridin-3-yl)-3-methylbenzoyl]piperazin-1-yl]benzamide]: under “AS-MS, mixture library, Bcl-2”, the “ASMS ratio (%) n = 1” value amounted to 0.8% and the “ASMS ratio (%) n = 2” value is listed as −2.1%.

With `CCOc1cccc(-c2cc(CN3CCN(c4ccc(C(=O)N(C)CC56CC7CC(CC(C7)C5)C6)nn4)CC3)cc(OC(F)(F)F)c2)c1` [B3A089-01, N-(1-Adamantylmethyl)-6-[4-[[3-(3-ethoxyphenyl)-5-(trifluoromethoxy)phenyl]methyl]piperazin-1-yl]-N-methylpyridazine-3-carboxamide], under setting [1], the “ASMS ratio (%) n = 1” value is recorded as −5.5% and the “ASMS ratio (%) n = 2” value is on record as −7.2%.

On to `CCOc1cncc(-c2ccc(CN3CCN(c4ccc(C(=O)NS(=O)(=O)CC56CC7CC(CC(C7)C5)C6)nn4)CC3)c3ccccc23)c1` [B2A092-01, N-(1-Adamantylmethylsulfonyl)-6-[4-[[4-(5-ethoxypyridin-3-yl)naphthalen-1-yl]methyl]piperazin-1-yl]pyridazine-3-carboxamide], for which, where the note is “AS-MS, mixture library, Bcl-2”, the “ASMS ratio (%) n = 1” value stood at 20.8% and the “ASMS ratio (%) n = 2” value was 16.6%.

As for `CCOc1cncc(C#Cc2ccccc2CN2CCN(c3ccc(C(=O)NS(C)(=O)=O)nn3)CC2)c1` [B2I096-01, 6-[4-[[2-[2-(5-Ethoxypyridin-3-yl)ethynyl]phenyl]methyl]piperazin-1-yl]-N-methylsulfonylpyridazine-3-carboxamide], the “ASMS ratio (%)” value by setting is: (n = 1) 0.0%; (n = 2) 0.0%.

With `CCOc1cncc(-c2ccc(CN3CCN(c4ccc(C(=O)Nc5ccc(OC)cc5)cc4)CC3)c(OC)c2)c1` [B1O054-01, 4-[4-[[4-(5-Ethoxypyridin-3-yl)-2-methoxyphenyl]methyl]piperazin-1-yl]-N-(4-methoxyphenyl)benzamide], under setting [1], the “ASMS ratio (%) n = 1” value is listed as 2.6% and the “ASMS ratio (%) n = 2” value was found to be 3.2%.

As to `CCOc1cncc(-c2ccc(CN3CCN(c4ccc(C(=O)NS(=O)(=O)c5ccc(NCCSc6ccccc6)c(C(F)(F)F)c5)nn4)CC3)c3ccccc23)c1` [B2R092-01, 6-[4-[[4-(5-Ethoxypyridin-3-yl)naphthalen-1-yl]methyl]piperazin-1-yl]-N-[4-(2-phenylsulfanylethylamino)-3-(trifluoromethyl)phenyl]sulfonylpyridazine-3-carboxamide], the “ASMS ratio (%)” value reads like this: (n = 1) 16.0%; (n = 2) −1.3%.

For the compound `CCOc1cccc(-c2ccccc2CCC(=O)N2CCN(c3ccc(C(=O)N(CC)CC)nn3)CC2)c1` [B4J011-01, 6-[4-[3-[2-(3-Ethoxyphenyl)phenyl]propanoyl]piperazin-1-yl]-N,N-diethylpyridazine-3-carboxamide], under setting [1], the “ASMS ratio (%) n = 1” value is on record as −0.1% and the “ASMS ratio (%) n = 2” value is −0.9%.

With `CCOc1cccc(C#Cc2ccccc2CN2CCN(c3ccc(C(=O)NCC45CC6CC(CC(C6)C4)C5)cc3)CC2)c1` [B1A069-01, N-(1-Adamantylmethyl)-4-[4-[[2-[2-(3-ethoxyphenyl)ethynyl]phenyl]methyl]piperazin-1-yl]benzamide], under setting [2], the “ASMS ratio (%) n = 1” value stood at 8.3% and the “ASMS ratio (%) n = 2” value is on record as 0.8%.

As for `CCOc1cncc(-c2cc(C(=O)N3CCN(c4ccc(C(=O)NS(=O)(=O)CC56CC7CC(CC(C7)C5)C6)cc4)CC3)cc(C(F)(F)F)c2)c1` [B2A040-01, N-(1-Adamantylmethylsulfonyl)-4-[4-[3-(5-ethoxypyridin-3-yl)-5-(trifluoromethyl)benzoyl]piperazin-1-yl]benzamide], for the setting “AS-MS, mixture library, Bcl-2”, the “ASMS ratio (%) n = 1” value was determined as 0.0% and the “ASMS ratio (%) n = 2” value is 0.0%.

On to `CCOc1cncc(-c2cc(CN3CCN(c4ccc(C(=O)NCC56CC7CC(CC(C7)C5)C6)nn4)CC3)cc(C(F)(F)F)c2)c1` [B1A088-01, N-(1-Adamantylmethyl)-6-[4-[[3-(5-ethoxypyridin-3-yl)-5-(trifluoromethyl)phenyl]methyl]piperazin-1-yl]pyridazine-3-carboxamide], for which, under setting [2], the “ASMS ratio (%) n = 1” value is on record as 18.7% and the “ASMS ratio (%) n = 2” value is given as −7.1%.

In the case of `CCOc1cccc(-c2ccc(CN3CCN(c4ccc(C(=O)NCC56CC7CC(CC(C7)C5)C6)nn4)CC3)c3ccccc23)c1` [B1A091-01, N-(1-Adamantylmethyl)-6-[4-[[4-(3-ethoxyphenyl)naphthalen-1-yl]methyl]piperazin-1-yl]pyridazine-3-carboxamide], under setting [2], the “ASMS ratio (%) n = 1” value turned out to be 0.0% and the “ASMS ratio (%) n = 2” value came to 15.4%.

For the compound `CCOc1cncc(-c2cc(CN3CCN(c4ccc(C(=O)NS(C)(=O)=O)nn4)CC3)cc(OC(F)(F)F)c2)c1` [B2I090-01, 6-[4-[[3-(5-Ethoxypyridin-3-yl)-5-(trifluoromethoxy)phenyl]methyl]piperazin-1-yl]-N-methylsulfonylpyridazine-3-carboxamide], the “ASMS ratio (%)” value turned out to be 0.0% (n = 1) and 0.0% (n = 2).

`CCOc1cncc(-c2csc(C(=O)N3CCN(c4ccc(C(=O)NCC56CC7CC(CC(C7)C5)C6)nn4)CC3)c2)c1` [B1A002-01]: under setting [2], the “ASMS ratio (%) n = 1” value stood at 0.0% and the “ASMS ratio (%) n = 2” value was found to be 4.9%.

For the compound `CCOc1cccc(-c2ccc(C(=O)N3CCN(c4ccc(C(=O)NS(=O)(=O)c5ccc(NCCSc6ccccc6)c(C(F)(F)F)c5)cc4)CC3)c3ccccc23)c1` [B2R035-01, 4-[4-[4-(3-Ethoxyphenyl)naphthalene-1-carbonyl]piperazin-1-yl]-N-[4-(2-phenylsulfanylethylamino)-3-(trifluoromethyl)phenyl]sulfonylbenzamide], the “ASMS ratio (%)” value by setting is: (n = 1) 8.3%; (n = 2) 0.9%.

Turning to `CCOc1cncc(-c2cc(C(=O)N3CCN(c4ccc(C(=O)Nc5ccc(OC)cc5)nn4)CC3)cc(C(F)(F)F)c2)c1` [B1O018-01, 6-[4-[3-(5-Ethoxypyridin-3-yl)-5-(trifluoromethyl)benzoyl]piperazin-1-yl]-N-(4-methoxyphenyl)pyridazine-3-carboxamide], under setting [1], the “ASMS ratio (%) n = 1” value is reported as 1.0% and the “ASMS ratio (%) n = 2” value is listed as 3.2%.

For `CCOc1cccc(-c2csc(C(=O)N3CCN(c4ccc(C(=O)N(CC)CC)nn4)CC3)c2)c1` [B4J001-01, 6-[4-[4-(3-Ethoxyphenyl)thiophene-2-carbonyl]piperazin-1-yl]-N,N-diethylpyridazine-3-carboxamide], under setting [1], the “ASMS ratio (%) n = 1” value is listed as 0.0% and the “ASMS ratio (%) n = 2” value was 0.0%.
